# Results from patent US9192166B2, “Compositions comprising a streptomyces-based biological control agent and an insecticide” (BAYER […], priority 2013, dated 2015).
# What was measured:
# Assay type in all cases: in vivo
# [1] = system: mustard beetle larvae (Phaedon cochleariae); experiment: Phaedon cochleariae spray test
# From the text: The fermentation product is referred to in the examples below as NRRL B-50550.
# Solvent: 78.0 parts by weight of acetone
# [2] = system: fall armyworm larvae (Spodoptera frugiperda); experiment: Spodoptera frugiperda spray test
# From the text: (§1) Emulsifier: alkylaryl polyglycol ether
# [3] = system: green peach aphid (Myzus persicae); experiment: Myzus persicae spray test (Chinese cabbage leaf disks)
# From the text: as §1
# 100% means all aphids have been killed; 0% means none of the aphids have been killed.
# [4] = system: two spotted spidermite (Tetranychus urticae); experiment: Tetranychus urticae spray test, OP-resistant
# From the text: as §1
# [5] = system: green peach aphid (Myzus persicae); experiment: Myzus persicae spray test (pepper leaves); conditions: 0.5 ppm
compound,measurement,setting,value
CNC(=O)c1cc(C#N)cc(C)c1NC(=O)c1cc(Cn2nnc(C(F)(F)F)n2)nn1-c1ncccc1Cl [1-(3-chloropyridin-2-yl)-N-[4-cyano-2-methyl-6-(methylcarbamoyl)phenyl]-3-{[5-(trifluoromethyl)-2H-tetrazol-2-yl]methyl}-1H-pyrazole-5-carboxamide],Efficacy in % after 6d,[1]; 0.128 ppm,0%
same,Efficacy in % after 2d,[1]; 0.64 ppm,50%
same,Efficacy in % after 6d,[2]; 0.64 ppm,33%
CNC(=O)c1cc(Cl)cc(C)c1NC(=O)c1cc(Br)nn1-c1ncccc1Cl [Chlorantraniliprole],Efficacy in % after 1d,[3]; 3.2 ppm,0%
same,Efficacy in % after 6d,[4]; 16 ppm,0%
O=[N+]([O-])NC1=NCCN1Cc1ccc(Cl)nc1 [Imidacloprid],Efficacy in % after 6d,[4]; 2 ppm,0%
CS/C(C)=N\OC(=O)N(C)SN(C)C(=O)O/N=C(\C)SC [Thiodicarb],Efficacy in % after 2d,[2]; 40 ppm,0%
CN/C(=N\[N+](=O)[O-])NCc1cnc(Cl)s1 [Clothianidin],Efficacy in % after 6d,[3]; 0.32 ppm,0%
"Cc1cc(F)c(-n2nc(C(F)(F)F)nc2N)cc1[S+]([O-])CC(F)(F)F (stereo not shown) [1-{2-fluoro-4-methyl-5-[(2,2,2-trifluorethyl)sulfinyl]phenyl}-3-(trifluoromethyl)-1H-1,2,4-triazol-5-amine]",Efficacy in % after 6d,[4]; 3.2 ppm,0%
Spinosad,Efficacy in % after 2d,[1]; 80 ppm,50%
same,Efficacy in % after 6d,[2]; 0.64 ppm,0%
N#Cc1nn(-c2c(Cl)cc(C(F)(F)F)cc2Cl)c(N)c1[S+]([O-])C(F)(F)F (stereo not shown) [Fipronil],Efficacy in % after 6d,[2]; 16 ppm,0%
"CC1(C)C(C=C(Cl)Cl)C1C(=O)OC(C#N)c1ccc(F)c(Oc2ccccc2)c1 (stereo not drawn) [β-Cyfluthrin, beta-Cyfluthrin]",Efficacy in % after 6d,[3]; 1.6 ppm,0%
same,Efficacy in % after 6d,[1]; 1.6 ppm,0%
same,Efficacy in % after 6d,[2]; 1.6 ppm,0%
CNC(=O)Oc1cc(C)c(SC)c(C)c1 [Methiocarb],Efficacy in % after 6d,[3]; 2000 ppm,0%
Spinetoram,Efficacy in % after 2d,[2]; 0.64 ppm,0%
Cc1c(F)c(F)c(COC(=O)[C@@H]2[C@H](/C=C(\Cl)C(F)(F)F)C2(C)C)c(F)c1F (racemic) [Tefluthrin],Efficacy in % after 2d,[1]; 40 ppm,0%
CC(c1ccc(C(F)(F)F)nc1)S(C)(=O)=NC#N (stereo not shown) [Sulfoxaflor],Efficacy in % after 1d,[3]; 0.64 ppm,0%
N#C/N=C1\SCCN1Cc1ccc(Cl)nc1 [Thiacloprid],Efficacy in % after 2d,[5],40%
same,Efficacy in % after 3d,[5],20%
same,Efficacy in % after 7d,[5],10%
CNC(=O)c1cc(C#N)cc(C)c1NC(=O)c1cc(Br)nn1-c1ncccc1Cl [Cyantraniliprole],Efficacy in % after 6d,[3]; 0.64 ppm,0%
same,Efficacy in % after 6d,[3]; 3.2 ppm,0%
same,Efficacy in % after 1d,[3]; 16 ppm,0%
same,Efficacy in % after 6d,[4]; 80 ppm,0%
same,Efficacy in % after 6d,[1]; 0.64 ppm,0%
Cc1cc(C(F)(C(F)(F)F)C(F)(F)F)ccc1NC(=O)c1cccc(I)c1C(=O)NC(C)(C)CS(C)(=O)=O [Flubendiamide],Efficacy in % after 2d,[2]; 3.2 ppm,33%
